US20230009626A1 (ICHNOS SCIENCES S.A., priority 2018, published 2023)

Target: HPK1 (MAP4K1) (Homo sapiens, UniProt Q92918)
Test: FRET Assay for HPK1 (MAP4K1): one step binding assay, displacement of labeled tracer
Settings: for inhibition at 1 µM: 1 μM compound; for inhibition at 1 µM / inhibition at 10 µM: FRET ratio 665/620, percent of control; for IC50: dose response curve, nonlinear regression; for inhibition at 10 µM: 10 μM compound
In short: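 TR-FRET tracer-displacement binding assay. GST-tagged HPK1 (10 nM) and Eu-anti-GST antibody (4 nM) were pre-incubated with compound on ice for 15 min in 50 mM HEPES pH 7.5, 10 mM MgCl2, 1 mM EGTA, 0.01% Brij-35 (3% DMSO final). Kinase Tracer 222 (20 nM) was then added for 1 h at room temperature. IC50 came from nonlinear regression of percent of control; percent inhibition was also given at 1.0 and 10.0 μM.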

Chain of HPK1 (MAP4K1) (Q92918 whole entry): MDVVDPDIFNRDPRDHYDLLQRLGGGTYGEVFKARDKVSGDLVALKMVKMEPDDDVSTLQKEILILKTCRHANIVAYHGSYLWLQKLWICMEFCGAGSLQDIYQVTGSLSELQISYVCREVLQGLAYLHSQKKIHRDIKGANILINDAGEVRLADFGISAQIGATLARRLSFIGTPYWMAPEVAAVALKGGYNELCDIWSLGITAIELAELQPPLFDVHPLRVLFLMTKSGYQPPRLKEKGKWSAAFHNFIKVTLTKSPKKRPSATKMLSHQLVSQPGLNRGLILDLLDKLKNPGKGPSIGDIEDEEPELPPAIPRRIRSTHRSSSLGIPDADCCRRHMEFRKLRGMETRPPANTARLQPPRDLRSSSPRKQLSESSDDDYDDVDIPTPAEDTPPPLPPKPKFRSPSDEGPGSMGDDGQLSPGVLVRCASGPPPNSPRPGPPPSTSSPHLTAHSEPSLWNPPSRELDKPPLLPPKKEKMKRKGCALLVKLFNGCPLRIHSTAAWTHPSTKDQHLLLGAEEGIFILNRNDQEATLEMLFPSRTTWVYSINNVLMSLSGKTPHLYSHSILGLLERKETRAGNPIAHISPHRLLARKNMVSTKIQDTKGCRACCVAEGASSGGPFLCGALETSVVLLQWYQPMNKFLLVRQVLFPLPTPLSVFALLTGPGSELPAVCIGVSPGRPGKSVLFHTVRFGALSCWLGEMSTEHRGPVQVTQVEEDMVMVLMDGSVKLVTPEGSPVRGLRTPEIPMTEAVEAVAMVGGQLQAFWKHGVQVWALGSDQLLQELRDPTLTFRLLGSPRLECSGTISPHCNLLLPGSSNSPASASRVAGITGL

| Compound | inhibition at 1 µM [%] | IC50 [nM] | inhibition at 10 µM [%] |
| --- | --- | --- | --- |
| C/C(Nc1cc(C)n([C@H](C)C#N)n1)=C1/C(=O)Nc2cnc(-c3c(C)cccc3F)cc21 [Example 199, (R,Z)-2-(3-((1-(5-(2-Fluoro-6-methylphenyl)-2-oxo-1H-pyrrolo[2,3-c]pyridin-3(2H)-ylidene)ethyl)amino)-5-methyl-1H-pyrazol-1-yl)propanenitrile] | 71.7 | < 50 | – |
| C/C(Nc1cc(C)n(CCC(C)(C)O)n1)=C1/C(=O)Nc2cnc(-c3c(C)cccc3F)cc21 [Example 203, (Z)-5-(2-Fluoro-6-methylphenyl)-3-(1-((1-(3-hydroxy-3-methylbutyl)-5-methyl-1H-pyrazol-3-yl)amino)ethylidene)-1H-pyrrolo[2,3-c]pyridin-2(3H)-one] | 67.6 | < 50 | 83 |
| CCn1nc(N/C(C)=C2\C(=O)Nc3cnc(-c4c(C)cccc4F)cc32)cc1C [Example 212, (Z)-3-(1-((1-Ethyl-5-methyl-1H-pyrazol-3-yl)amino)ethylidene)-5-(2-fluoro-6-methylphenyl)-1H-pyrrolo[2,3-c]pyridin-2(3H)-one] | 63.1 | < 50 | 74.4 |
| COc1cccc(F)c1-c1ccc2c(c1)/C(=C(\C)Nc1ccccc1)C(=O)N2 [Example 3, (Z)-5-(2-Fluoro-6-methoxyphenyl)-3-(1-(phenylamino)ethylidene)indolin-2-one] | 62.5 | 100 to 500 | – |
| C/C(Nc1cc(C)n([C@@H](C)C#N)n1)=C1/C(=O)Nc2cnc(-c3c(C)cccc3F)cc21 [Example 208, (S,Z)-2-(3-((1-(5-(2-Fluoro-6-methylphenyl)-2-oxo-1H-pyrrolo[2,3-c]pyridin-3(2H)-ylidene)ethyl)amino)-5-methyl-1H-pyrazol-1-yl)propanenitrile] | 79.7 | < 50 | – |
| C/C(Nc1cc(C)n(C[C@H](C)O)n1)=C1/C(=O)Nc2cnc(-c3c(C)cccc3F)cc21 [Example 209, (S,Z)-5-(2-Fluoro-6-methylphenyl)-3-(1-((1-(2-hydroxypropyl)-5-methyl-1H-pyrazol-3-yl)amino)ethylidene)-1H-pyrrolo[2,3-c]pyridin-2(3H)-one] | 75.7 | < 50 | 78.9 |
| C/C(Nc1ccn(C(C)(C)C#N)n1)=C1/C(=O)Nc2cnc(-c3c(C)cccc3F)cc21 [Example 142, (Z)-2-(3-((1-(5-(2-Fluoro-6-methylphenyl)-2-oxo-1H-pyrrolo[2,3-c]pyridin-3(2H)-ylidene)ethyl)amino)-1H-pyrazol-1-yl)-2-methylpropanenitrile] | 77.9 | < 50 | 80.8 |
| COc1cccc(F)c1-c1cc2c(cn1)NC(=O)/C2=C(/C)Nc1cnn(C(F)F)c1 [Example 65, (Z)-3-(1-((1-(Difluoromethyl)-1H-pyrazol-4-yl)amino)ethylidene)-5-(2-fluoro-6-methoxyphenyl)-1H-pyrrolo[2,3-c]pyridin-2(3H)-one] | 79.7 | 50 to 100 | 75.5 |
| CCn1cc(N/C(C)=C2\C(=O)Nc3cnc(-c4c(F)cccc4OC)cc32)cn1 [Example 29, (Z)-3-(1-((1-Ethyl-1H-pyrazol-4-yl)amino)ethylidene)-5-(2-fluoro-6-methoxyphenyl)-1H-pyrrolo[2,3-c]pyridin-2(3H)-one] | 87.4 | < 50 | 85.1 |
| C/C(Nc1ccc(N2CCN(C)CC2)cc1)=C1/C(=O)Nc2ccc(F)cc21 [Example 6, (Z)-5-Fluoro-3-(1-((4-(4-methylpiperazin-1-yl)phenyl)amino)ethylidene)indolin-2-one] | 85.5 | < 50 | 87.3 |
| C/C(Nc1cc(C)n(C(F)F)n1)=C1/C(=O)Nc2cnc(-c3cc(F)ccc3C)cc21 [Example 215, (Z)-3-(1-((1-(Difluoromethyl)-5-methyl-1H-pyrazol-3-yl)amino)ethylidene)-5-(5-fluoro-2-methylphenyl)-1H-pyrrolo[2,3-c]pyridin-2(3H)-one] | 67.3 | < 50 | – |

Second part, the compound after the results:

| inhibition at 1 µM [%] | IC50 [nM] | inhibition at 10 µM [%] | Compound |
| --- | --- | --- | --- |
| 59 | 100 to 500 | 59.9 | C/C(Nc1ccn(C(C)(C)C(N)=O)n1)=C1/C(=O)Nc2cnc(-c3cnccc3C)cc21 [Example 97, (Z)-2-Methyl-2-(3-((1-(5-(4-methylpyridin-3-yl)-2-oxo-1H-pyrrolo[2,3-c]pyridin-3(2H)-ylidene)ethyl)amino)-1H-pyrazol-1-yl)propanamide] |
| 86.1 | < 50 | 84.9 | C/C(Nc1cnn(C2COC2)c1)=C1/C(=O)Nc2cnc(-c3cnccc3C)cc21 [Example 52, (Z)-5-(4-Methylpyridin-3-yl)-3-(1-((1-(oxetan-3-yl)-1H-pyrazol-4-yl)amino)ethylidene)-1H-pyrrolo[2,3-c]pyridin-2(3H)-one] |
| 52.4 | > 500 | 68.6 | C/C(Nc1cc(C)n(CC[C@@H](C)O)n1)=C1/C(=O)Nc2cnc(-c3cnccc3C)cc21 [Example 190, (R,Z)-3-(1-((1-(3-Hydroxybutyl)-5-methyl-1H-pyrazol-3-yl)amino)ethylidene)-5-(4-methylpyridin-3-yl)-1H-pyrrolo[2,3-c]pyridin-2(3H)-one] |
| 73 | < 50 | 80.3 | C/C(Nc1ccc(N2CCN(C3COC3)CC2)nc1)=C1/C(=O)Nc2cnc(-c3cnccc3C)cc21 [Example 77, (Z)-5-(4-Methylpyridin-3-yl)-3-(1-((6-(4-(oxetan-3-yl)piperazin-1-yl)pyridin-3-yl)amino)ethylidene)-1H-pyrrolo[2,3-c]pyridin-2(3H)-one] |
| 68.6 | < 50 | 73.5 | C/C(Nc1ccc(N2CCN(C3CC3)CC2)nc1)=C1/C(=O)Nc2cnc(-c3cnccc3C)cc21 [Example 96, (Z)-3-(1-((6-(4-Cyclopropylpiperazin-1-yl)pyridin-3-yl)amino)ethylidene)-5-(4-methylpyridin-3-yl)-1H-pyrrolo[2,3-c]pyridin-2(3H)-one] |
| 73.8 | < 50 | 71.1 | C/C(Nc1cc(C)n([C@H](C)C#N)n1)=C1/C(=O)Nc2cnc(-c3cnccc3C)cc21 [Example 198, (R,Z)-2-(5-Methyl-3-((1-(5-(4-methylpyridin-3-yl)-2-oxo-1H-pyrrolo[2,3-c]pyridin-3(2H)-ylidene)ethyl)amino)-1H-pyrazol-1-yl)propanenitrile] |
| 78.8 | < 50 | 73 | CCn1nc(N/C(C)=C2\C(=O)Nc3cnc(-c4cnccc4C)cc32)cc1C [Example 182, (Z)-3-(1-((1-Ethyl-5-methyl-1H-pyrazol-3-yl)amino)ethylidene)-5-(4-methylpyridin-3-yl)-1H-pyrrolo[2,3-c]pyridin-2(3H)-one] |
| 77.2 | 50 to 100 | 84.8 | Cc1ccncc1-c1cc2c(cn1)NC(=O)/C2=C(\Nc1cnn(C)c1)C(C)C [Example 48, (Z)-3-(2-Methyl-1-((1-methyl-1H-pyrazol-4-yl)amino)propylidene)-5-(4-methylpyridin-3-yl)-1H-pyrrolo[2,3-c]pyridin-2(3H)-one] |
| 69.9 | 50 to 100 | 77 | C/C(Nc1cnn(C)c1)=C1/C(=O)Nc2cnc(-c3cnn(C)c3C)cc21 [Example 41, (Z)-5-(1,5-Dimethyl-1H-pyrazol-4-yl)-3-(1-((1-methyl-1H-pyrazol-4-yl)amino)ethylidene)-1H-pyrrolo[2,3-c]pyridin-2(3H)-one] |
| 75.2 | < 50 | 70.4 | C/C(Nc1ccc(OC2CCNCC2)nc1)=C1/C(=O)Nc2cnc(-c3cnccc3C)cc21 [Example 84, (Z)-5-(4-Methylpyridin-3-yl)-3-(1-((6-(piperidin-4-yloxy)pyridin-3-yl)amino)ethylidene)-1H-pyrrolo[2,3-c]pyridin-2(3H)-one] |
| 68 | < 50 | 81.8 | C/C(Nc1ccn(CCN2CCOCC2)n1)=C1/C(=O)Nc2cnc(-c3cnccc3C)cc21 [Example 101, (Z)-5-(4-Methylpyridin-3-yl)-3-(1-((1-(2-morpholinoethyl)-1H-pyrazol-3-yl)amino)ethylidene)-1H-pyrrolo[2,3-c]pyridin-2(3H)-one] |
| 79.2 | < 50 | 89.8 | C/C(Nc1ccn(CC(=O)N(C)C)n1)=C1/C(=O)Nc2cnc(-c3cnccc3C)cc21 [Example 128, (Z)-N,N-Dimethyl-2-(3-((1-(5-(4-methylpyridin-3-yl)-2-oxo-1H-pyrrolo[2,3-c]pyridin-3(2H)-ylidene)ethyl)amino)-1H-pyrazol-1-yl)acetamide] |
| 62.8 | > 500 | 87.4 | C/C(Nc1cnn(C)c1)=C1/C(=O)Nc2cccc(-c3cnccc3C)c21 [Example 159, (Z)-3-(1-((1-Methyl-1H-pyrazol-4-yl)amino)ethylidene)-4-(4-methylpyridin-3-yl)indolin-2-one] |
| 73.5 | < 50 | 76.9 | C/C(Nc1cc(C)n(CC2CC2)n1)=C1/C(=O)Nc2cnc(-c3cnccc3C)cc21 [Example 189, (Z)-3-(1-((1-(cyclopropylmethyl)-5-methyl-1H-pyrazol-3-yl)amino)ethylidene)-5-(4-methylpyridin-3-yl)-1H-pyrrolo[2,3-c]pyridin-2(3H)-one] |
| 72.4 | < 50 | 83.4 | C/C(Nc1ccc(N(C)C)nc1)=C1/C(=O)Nc2cnc(-c3cnccc3C)cc21 [Example 109, (Z)-3-(1-((6-(Dimethylamino)pyridin-3-yl)amino)ethylidene)-5-(4-methylpyridin-3-yl)-1H-pyrrolo[2,3-c]pyridin-2(3H)-one] |
